# From US20090214466A1 (priority 2006, published 2009)
# What was measured:
# Conditions in all cases: human, in vivo
# migraine symptoms [1] = test system: migraine symptoms
# migraine symptoms [2] = test system: migraine symptoms; remark: listed apart in the source
# [3] = test system: symptoms of post-laminectomy syndrome
substance,measurement,setting,value
botulinum toxin type A [BOTOX® botulinum toxin type A],"frequency, severity, and duration of migraine symptoms",migraine symptoms [1],"Reduction in the frequency, severity, and duration of migraine symptoms was reported"
etanercept [ENBREL® etanercept],frequency and severity of migraine symptoms,migraine symptoms [2],Reduction in the frequency and severity of migraine symptoms was reported
infliximab [REMICADE® infliximab],symptoms of post-laminectomy syndrome,[3],reduced symptoms
